Reference: US7875601B2, “Cancer treatment with epothilones” (Novartis AG, priority 1998, dated 2011)
Values joined by “and” are separate entries in the source; they are usually repeats but may differ in a detail not shown here. Equal entries are not always repeated. Marks after values point to notes of the source that are not given here.

Columns and labels:
[1] = tested on: HCT-15 (Colon); assay: Antiproliferative assay, HCT-15; type: cell-based, human; conditions: HCT-15, 5 d exposure, mean ± SD, n = 3; read-out: IC50 for growth inhibition
Excerpt: Human colorectal adenocarcinoma cell line HCT-15 (ATCC CCL 225) is from the American Type Culture Collection (Rockville, Md., USA), and the cells are cultivated in vitro as recommended by the supplier. HCT-15 is an epithelial-like cell line. (Cancer Res. 39: 1020-25 [1979]) that is multi-drug resistant by virtue of over-expression of P-glycoprotein (P-gp, gp170, MDR-1;Anticancer Res. 11: 1309-12 [1991]; J. Biol. Chem. 264: 18031-40 [1989]; Int. J. Cancer 1991; 49: 696-703 [1991]) and glutathione-dependent resistance mechanisms (Int. J. Cancer 1991; 49: 688-95 [1991]).
Antiproliferative assays are performed as previously described (Int. J. Cancer 43, 851-6 (1989)). Briefly, cells are seeded at 1.5×10^3 cells/well into 96-well microtiter plates and incubated overnight. Compounds are added in serial dilutions on day 1. The plates are then incubated for an additional 2 to 5 days, allowing for at least one cell doubling (cell line dependent), after which the cells are fixed with 3.3% v/v glutaraldehyde, washed with water and stained with 0.05% w/v methylene blue. After washing, the dye is eluted with 3% v/v HCl and the optical density measured at 665 nm with a SpectraMax 340 (Bucherer, Basel, Switzerland). IC50 values are determined by a computerized system (SoftPro, Bucherer, Basel, Switzerland) using the formula (OD test−OD start)/(OD control−OD start)×100. […]

[2] = tested on: A549 non-small cell lung tumors; assay: Antitumor activity on A549 tumors, once weekly dosing (Example 8); type: in vivo, outbred athymic (nu/nu) mice; conditions: for body weight loss: 3 weeks experiment, reversible
Excerpt: Materials and methods pertaining to the human tumor xenograft model are as previously described.
Measurements are taken for an additional 2 weeks after completion of the regular 3 weeks experiments, to evaluate reversibility of drug-induced body weight loss, and sustainability of antitumor effects.

[3] = GLP toxicology study in dogs; type: in vivo; conditions: dog
Excerpt: Inclusion Criteria • The following criteria must be met for inclusion into the study: • 1. Male or female patients >18 years of age. • 2. […] At least one measurable, evaluable, or non-evaluable site of disease as defined by Southwestern Oncology Group (SWOG) Solid Tumor Response Criteria including tumor marker value that is above the institutional upper limit of normal. • 4. Women of childbearing potential must have a negative serum β-HCG pregnancy test prior to the initiation of study drug. Male and female patients of reproductive potential must agree to employ an effective method of birth control throughout the study and for up to 3 months following discontinuation of study drug. • 5. World Health Organization (WHO) Performance Status Score of ≦2. • 6. Life expectancy of at least 3 months. • 7. Written informed consent is obtained prior to any screening procedures. Exclusion Criteria • Exclusion from the study is required if any of the following apply: • 1. Female patients who are pregnant or breast-feeding. Postmenopausal women must be amenorrheic for at least 12 months to be considered of non-childbearing potential. • 2. […] This dose is calculated as one-third of the toxic dose low (TDL) in the most sensitive species studied which, for epothilone B, is the dog. […]

[4] = 1 mg/kg i.v. once weekly for 3 weeks, day 34
[5] = 1 mg/kg once weekly for 3 weeks, extended observation, day 48
[6] = 2 mg/kg i.v. once weekly for 3 weeks, day 34
[7] = 2 mg/kg once weekly for 3 weeks, extended observation, day 48
[8] = 3 mg/kg i.v. once weekly for 3 weeks, day 34
[9] = 3 mg/kg once weekly for 3 weeks, extended observation, day 48
[10] = 3.5 mg/kg i.v. once weekly for 3 weeks, day 34
[11] = 3.5 mg/kg once weekly for 3 weeks, extended observation, day 48

C/C(=C\c1csc(C)n1)[C@@H]1C[C@@H]2O[C@]2(C)CCC[C@H](C)[C@H](O)[C@@H](C)C(=O)C(C)(C)[C@@H](O)CC(=O)O1 [epothilone B]
IC50 [1]: 0.41 ± 0.15 nM | % T/C [2, 4]: 74% and 74^*,** % | Dead/Total [2, 4]: 0/8 | Delta % Body Weight [2, 4]: +10.8% | Delta Mean Tumor Vol. (mm^3 ± SEM) [2, 4]: 195 ± 21 mm^3 | Dead/Total [2, 5]: 0/8 | Delta % Body Weight [2, 5]: +12.6% | Delta Mean Tumor Vol. (mm^3 ± SEM) [2, 5]: 339 ± 24 mm^3 | % T/C ([2]; 1 mg/kg once weekly for 3 weeks, extended observation, day 48 (week 5)): 72% | % T/C [2, 6]: 43% and 43*^,** % | Dead/Total [2, 6]: 0/8 | Delta % Body Weight [2, 6]: +0.9% | Delta Mean Tumor Vol. (mm^3 ± SEM) [2, 6]: 113 ± 21 mm^3 | Dead/Total [2, 7]: 0/8 | Delta % Body Weight [2, 7]: +13.5% | Delta Mean Tumor Vol. (mm^3 ± SEM) [2, 7]: 232 ± 39 mm^3 | % T/C ([2]; 2 mg/kg once weekly for 3 weeks, extended observation, day 48 (week 5)): 49* % | % T/C [2, 8]: 23% and 23*^,** % | Dead/Total [2, 8]: 0/8 | Delta % Body Weight [2, 8]: −16.4% | Delta Mean Tumor Vol. (mm^3 ± SEM) [2, 8]: 60 ± 22 mm^3 | Dead/Total [2, 9]: 0/8 | Delta % Body Weight [2, 9]: +13.2% | Delta Mean Tumor Vol. (mm^3 ± SEM) [2, 9]: 75 ± 25 mm^3 | % T/C ([2]; 3 mg/kg once weekly for 3 weeks, extended observation, day 48 (week 5)): 16*^,** % | body weight loss ([2]; 3 mg/kg once weekly): approximately 15% | % T/C [2, 10]: 15% and 15*^,** % | Dead/Total [2, 10]: 0/8 | Delta % Body Weight [2, 10]: −14.6% | Delta Mean Tumor Vol. (mm^3 ± SEM) [2, 10]: 40 ± 15 mm^3 | Dead/Total [2, 11]: 0/8 | Delta % Body Weight [2, 11]: +9.7% | Delta Mean Tumor Vol. (mm^3 ± SEM) [2, 11]: 58 ± 25 mm^3 | % T/C ([2]; 3.5 mg/kg once weekly for 3 weeks, extended observation, day 48 (week 5)): 12*^,** % | body weight loss ([2]; 3.5 mg/kg once weekly): approximately 15% | Mortalities ([3]; 0.1 mg/kg, repeated once 3 weeks later): no mortalities | toxic dose low (TDL) ([3]; most sensitive species, estimated): ~0.65 mg/kg
